Source: patent US12692547B2, “Methods of treating cancers containing fusion genes” (UNIVERSITY OF PITTSBURGH—OF THE COMMONWEALTH SYSTEM OF …, priority 2016, dated 2026)

Experiments:
[1] = tested on: PC3, A-172 or HUH7 with or without MAN2A1-FER; experiment: Killing of cancer cell lines with or without MAN2A1-FER (summary over cell lines); type: cell-based; conditions: Homo sapiens, read-out: IC50 values (50% inhibitory concentrations)
From the text: (§1) FIG. 18. […] Factions of cell death were then quantified by Annexin V and propridium iodide staining. […] Factions of cell death were then quantified by Annexin V and propridium iodide staining. […] Factions of cell death were then quantified by Annexin V and propridium iodide staining.
(§2) Since the kinase activity of MAN2A1-FER and EGFR activation are the drivers of MAN2A1-FER oncogenic activity, it is of interest to examine whether inhibition of the kinase activity of MAN2A1-FER or EGFR interrupts the oncogenic activity of MAN2A1-FER, and thus the growth of the tumors.

HUH7 cells xenograft = experiment: Kinase inhibitor treatment of SCID mice xenografted with HUH7 or HUH7/ko cells; type: in vivo, mouse; conditions: for reduction of final tumor size: HUH7, MAN2A1-FER present, vs DMSO controls, crizotinib 12.5 mg/kg, canertinib 10 mg/kg, 3 times a week, peritoneal injection
From the text: (§3) Treatment of Severe Combined Immunodeficient Mice Xenografted With Cancer Cells. For kinase inhibitor treatment experiments, PMF, GMF, HUH7, and HUH7/ko cells (2×10^7 cells) were xenografted into the subcutaneous region of SCID mice. […] Serial sections of formalin-fixed, paraffin-embedded lung, brain, liver, kidney, vertebra, and lymph node specimens were collected, stained with H&E, and examined microscopically.

[2] = tested on: PC3, A-172 and HUH7 xenografted tumors; experiment: Metastasis and mortality of treated SCID mice, all tumors pooled; type: in vivo, mouse; conditions: for mortality of xenografted mice: tumors positive for MAN2A1-FER
From the text: as §3

PC3 cells xenograft = experiment: Kinase inhibitor treatment of SCID mice xenografted with PC3 (PMF) cells; type: in vivo, mouse; conditions: for reduction of final tumor size: PC3, MAN2A1-FER present, vs DMSO controls, crizotinib 12.5 mg/kg, canertinib 10 mg/kg, 3 times a week, peritoneal injection
From the text: as §3

[3] = tested on: GMF cells (A-172 with inducible MAN2A1-FER-FLAG); experiment: Cell death by Annexin V and propidium iodide staining, GMF cells; type: cell-based; conditions: Homo sapiens, A 172, GMF cells
From the text: as §1, §2

A-172 cells xenograft = experiment: Kinase inhibitor treatment of SCID mice xenografted with A-172 (GMF) cells; type: in vivo, mouse; conditions: for reduction of final tumor size: A-172, MAN2A1-FER present, vs DMSO controls, crizotinib 12.5 mg/kg, canertinib 10 mg/kg, 3 times a week, peritoneal injection
From the text: as §3

HUH7 cells = experiment: Cell death by Annexin V and propidium iodide staining, HUH7 cells and MAN2A1-FER knockout counterpart; type: cell-based; conditions: Homo sapiens
From the text: as §1, §2

[4] = tested on: PMF cells (PC3 with inducible MAN2A1-FER-FLAG); experiment: Cell death by Annexin V and propidium iodide staining, PMF cells; type: cell-based; conditions: Homo sapiens
From the text: as §1, §2

GST-MAN2A1-FER = target: T1, GST-MAN2A1-FER (Homo sapiens, UniProt P16591); experiment: Phosphorylation of HisTAG-EGFR aa1-650 by GST-MAN2A1-FER with excessive peptide; type: biochemical; conditions: excessive amount of peptide; HisTAG-EGFR aa1-650 substrate
T1 construct: while leaving the tyrosine kinase domain in FER largely intact; MAN2A1 N-terminal 703 amino acids (fusion partner, itself N-terminally GST-tagged); made in house; host or cells: Escherichia coli BL21; the other entry of the earlier key: MAN2A1 (Q16706, Alpha-mannosidase 2)
T1 sequence (P16591 with tags, fused parts or gaps): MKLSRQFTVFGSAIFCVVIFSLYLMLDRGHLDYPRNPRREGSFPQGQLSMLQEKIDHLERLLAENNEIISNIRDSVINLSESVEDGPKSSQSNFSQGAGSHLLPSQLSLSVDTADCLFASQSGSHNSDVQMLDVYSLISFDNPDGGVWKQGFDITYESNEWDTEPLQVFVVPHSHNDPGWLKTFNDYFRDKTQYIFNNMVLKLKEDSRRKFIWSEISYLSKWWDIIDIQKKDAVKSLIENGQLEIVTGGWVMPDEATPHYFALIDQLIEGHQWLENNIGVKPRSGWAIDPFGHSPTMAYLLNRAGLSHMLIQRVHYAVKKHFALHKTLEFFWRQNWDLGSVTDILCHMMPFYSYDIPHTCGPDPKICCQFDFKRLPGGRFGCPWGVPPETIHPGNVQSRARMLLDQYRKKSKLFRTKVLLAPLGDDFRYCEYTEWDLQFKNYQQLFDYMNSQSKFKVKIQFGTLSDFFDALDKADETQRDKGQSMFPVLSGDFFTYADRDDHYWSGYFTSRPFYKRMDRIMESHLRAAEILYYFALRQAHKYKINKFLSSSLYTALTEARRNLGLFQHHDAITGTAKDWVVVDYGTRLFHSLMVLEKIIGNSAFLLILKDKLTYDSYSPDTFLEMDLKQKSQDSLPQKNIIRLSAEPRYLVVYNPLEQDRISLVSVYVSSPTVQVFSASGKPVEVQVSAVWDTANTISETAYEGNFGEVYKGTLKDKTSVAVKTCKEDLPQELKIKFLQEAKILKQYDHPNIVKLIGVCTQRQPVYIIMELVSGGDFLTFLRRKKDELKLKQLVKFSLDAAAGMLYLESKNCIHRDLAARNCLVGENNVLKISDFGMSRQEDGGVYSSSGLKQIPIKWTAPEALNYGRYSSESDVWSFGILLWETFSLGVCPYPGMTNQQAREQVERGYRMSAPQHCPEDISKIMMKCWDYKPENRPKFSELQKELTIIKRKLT

[5] = MAN2A1-FER negative cells, control 1/18
[6] = all tumors (PC3, A-172, HUH7), MAN2A1-FER present, controls 11/18
[7] = A-172, MAN2A1-FER not present, same regimen
[8] = Huh-7, HUH7 KO (MAN2A1-FER knockout)
[9] = Huh-7, HUH7 WT (MAN2A1-FER positive)

blocking of phosphorylation of EGFR N-terminus by GST-MAN2A1-FER (GST-MAN2A1-FER) | Molecule | IC50 [1] | reduction of tumor size (HUH7 cells xenograft; HUH7, MAN2A1-FER not present (knockout), same regimen) | reduction of final tumor size (HUH7 cells xenograft) | metastasis (mice with metastasis / mice) [2, 5] | metastasis (mice with metastasis / mice) [2, 6] | mortality of xenografted mice [2] | reduction of tumor size (PC3 cells xenograft; PC3, MAN2A1-FER not present, same regimen) | reduction of final tumor size (PC3 cells xenograft) | IC50 ([3]; Tet+ (MAN2A1-FER-FLAG induced)) | IC50 ([3]; Tet− (no MAN2A1-FER-FLAG)) | reduction of tumor size (A-172 cells xenograft; [7]) | reduction of final tumor size (A-172 cells xenograft) | IC50 (HUH7 cells; [8]) | IC50 (HUH7 cells; [9]) | IC50 ([4]; Tet+ (MAN2A1-FER-FLAG induced)) | IC50 ([4]; Tet− (no MAN2A1-FER-FLAG)) | increase of tumor size (A-172 cells xenograft; [7])
 | C=CC(=O)Nc1cc2c(Nc3ccc(F)c(Cl)c3)ncnc2cc1OCCCN1CCOCC1 [canertinib] | < 0.015 µM | 40.2% | 81.7% | 2/18 | 0/18 | completely eliminated the mortality | 32.0% | 85.0% | 0.0107 µM | 0.0265 µM | 19.2% | 73.2% | 0.0303 µM | 0.0147 µM | 0.0109 µM | 0.0251 µM | 
 | C[C@@H](Oc1cc(-c2cnn(C3CCNCC3)c2)cnc1N)c1c(Cl)ccc(F)c1Cl [crizotinib] |  |  | 80.7% | 2/18 | 0/18 | completely eliminated the mortality |  | 78.6% | 0.0331 µM | 0.0645 µM |  | 67.6% | 0.0529 µM | 0.0289 µM | 0.0208 µM | 0.0433 µM | 4%
partially blocked | FLKTIQEVAGYVLIALNTVER [peptide 3] |  |  |  |  |  |  |  |  |  |  |  |  |  |  |  |  | 
